Reference: patent US11154060B2, “Microbiocidal oxadiazole derivatives” (SYNGENTA PARTICIPATIONS AG, priority 2016, dated 2021)

Tests used:
[1] = test system: Puccinia recondita f. sp. tritici; assay: Puccinia recondita f. sp. tritici / wheat / leaf disc preventative (brown rust); assay type: in vivo; conditions: foliar, wheat leaf segments cv. Kanzler, inoculated 1 day after application, assessed 7-9 days after application, read-out: control of Puccinia recondita f. sp. tritici compared to untreated control
Description: Leaf disks or leaf segments of various plant species are cut from plants grown in a greenhouse. The cut leaf disks or segments are placed in multiwell plates (24-well format) onto water agar. The leaf disks are sprayed with a test solution before (preventative) or after (curative) inoculation. Compounds to be tested are prepared as DMSO solutions (max. 10 mg/ml) which are diluted to the appropriate concentration with 0.025% Tween20 just before spraying. The inoculated leaf disks or segments are incubated under defined conditions (temperature, relative humidity, light, etc.) according to the respective test system. A single evaluation of disease level is carried out 3 to 14 days after inoculation, depending on the pathosystem. Percent disease control relative to the untreated check leaf disks or segments is then calculated. Wheat leaf segments cv. Kanzler are placed on agar in multiwell plates (24-well format) and sprayed with the formulated test compound diluted in water. The leaf disks are inoculated with a spore suspension of the fungus 1 day after application. The inoculated leaf segments are incubated at 19° C. and 75% rh under a light regime of 12 h light/12 h darkness in a climate cabinet and the activity of a compound is assessed as percent disease control compared to untreated when an appropriate level of disease damage appears in untreated check leaf segments (7-9 days after application).

[2] = test system: Glomerella lagenarium (Colletotrichum lagenarium); assay: Glomerella lagenarium (Colletotrichum lagenarium) liquid culture / cucumber / preventative (anthracnose); assay type: cell-based; conditions: Colletotrichum orbiculare, liquid culture in PDB, 24° C., 3-4 days after application, read-out: control of Glomerella lagenarium compared to untreated control (inhibition of growth, photometric)
Description: Mycelia fragments or conidia suspensions of a fungus prepared either freshly from liquid cultures of the fungus or from cryogenic storage, are directly mixed into nutrient broth. DMSO solutions of the test compound (max. 10 mg/ml) are diluted with 0.025% Tween20 by a factor of 50 and 10 μl of this solution is pipetted into a microtiter plate (96-well format). The nutrient broth containing the fungal spores/mycelia fragments is then added to give an end concentration of the tested compound. The test plates are incubated in the dark at 24° C. and 96% relative humidity. The inhibition of fungal growth is determined photometrically after 2 to 7 days, depending on the pathosystem, and percent antifungal activity relative to the untreated check is calculated. Conidia of the fungus from cryogenic storage are directly mixed into nutrient broth (PDB potato dextrose broth). After placing a (DMSO) solution of test compound into a microtiter plate (96-well format), the nutrient broth containing the fungal spores is added. The test plates are incubated at 24° C. and the inhibition of growth is measured photometrically 3-4 days after application.

[3] = test system: Phakopsora pachyrhizi; assay: Phakopsora pachyrhizi / soybean / leaf disc preventative (Asian soybean rust); assay type: in vivo; conditions: foliar, soybean leaf disks, inoculated one day after application, assessed 12-14 days after application, read-out: control of Phakopsora pachyrhizi compared to untreated control
Description: Leaf disks or leaf segments of various plant species are cut from plants grown in a greenhouse. The cut leaf disks or segments are placed in multiwell plates (24-well format) onto water agar. The leaf disks are sprayed with a test solution before (preventative) or after (curative) inoculation. Compounds to be tested are prepared as DMSO solutions (max. 10 mg/ml) which are diluted to the appropriate concentration with 0.025% Tween20 just before spraying. The inoculated leaf disks or segments are incubated under defined conditions (temperature, relative humidity, light, etc.) according to the respective test system. A single evaluation of disease level is carried out 3 to 14 days after inoculation, depending on the pathosystem. Percent disease control relative to the untreated check leaf disks or segments is then calculated. Soybean leaf disks are placed on water agar in multiwell plates (24-well format) and sprayed with the formulated test compound diluted in water. One day after application leaf discs are inoculated by spraying a spore suspension on the lower leaf surface. After an incubation period in a climate cabinet of 24-36 hours in darkness at 20° C. and 75% rh leaf disc are kept at 20° C. with 12 h light/12 h darkness and 75% rh. The activity of a compound is assessed as percent disease control compared to untreated when an appropriate level of disease damage appears in untreated check leaf disks (12-14 days after application).

[4] = test system: Uromyces viciae-fabae; assay: Uromyces viciae-fabae / field bean / leaf disc preventative (faba-bean rust); assay type: in vivo; conditions: foliar, 288 h, 100 ppm in the applied formulation, field bean leaf discs, inoculated two hours after application, 12 days after application, read-out: disease control compared to untreated control leaf discs
Description: Leaf disks or leaf segments of various plant species are cut from plants grown in a greenhouse. The cut leaf disks or segments are placed in multiwell plates (24-well format) onto water agar. The leaf disks are sprayed with a test solution before (preventative) or after (curative) inoculation. Compounds to be tested are prepared as DMSO solutions (max. 10 mg/ml) which are diluted to the appropriate concentration with 0.025% Tween20 just before spraying. The inoculated leaf disks or segments are incubated under defined conditions (temperature, relative humidity, light, etc.) according to the respective test system. A single evaluation of disease level is carried out 3 to 14 days after inoculation, depending on the pathosystem. Percent disease control relative to the untreated check leaf disks or segments is then calculated. Field bean leaf discs are placed on water agar in multiwell plates (96-well format) and 10 μl of the formulated test compound diluted in acetone and a spreader pipetted onto the leaf disc. Two hours after application leaf discs are inoculated by spraying a spore suspension on the lower leaf surface. The leaf discs are incubated in a climate cabinet at 22° C. with 18 hour day and 70% relative humidity. The activity of a compound is assessed as percent disease control compared to untreated when an appropriate level of disease damage appears in untreated check leaf disks (12 days after application).

[5] = test system: Puccinia recondita f. sp. tritici; assay: Puccinia recondita f. sp. tritici / wheat / leaf disc curative (brown rust); assay type: in vivo; conditions: foliar, wheat leaf segments cv. Kanzler, applied 1 day after inoculation, assessed 6-8 days after application, read-out: control of Puccinia recondita f. sp. tritici compared to untreated control
Description: Leaf disks or leaf segments of various plant species are cut from plants grown in a greenhouse. The cut leaf disks or segments are placed in multiwell plates (24-well format) onto water agar. The leaf disks are sprayed with a test solution before (preventative) or after (curative) inoculation. Compounds to be tested are prepared as DMSO solutions (max. 10 mg/ml) which are diluted to the appropriate concentration with 0.025% Tween20 just before spraying. The inoculated leaf disks or segments are incubated under defined conditions (temperature, relative humidity, light, etc.) according to the respective test system. A single evaluation of disease level is carried out 3 to 14 days after inoculation, depending on the pathosystem. Percent disease control relative to the untreated check leaf disks or segments is then calculated. Wheat leaf segments cv. Kanzler are placed on agar in multiwell plates (24-well format). The leaf segments are inoculated with a spore suspension of the fungus. Plates are stored in darkness at 19° C. and 75% rh. The formulated test compound diluted in water is applied 1 day after inoculation. The leaf segments are incubated at 19° C. and 75% rh under a light regime of 12 h light/12 h darkness in a climate cabinet and the activity of a compound is assessed as percent disease control compared to untreated when an appropriate level of disease damage appears in untreated check leaf segments (6-8 days after application).

With `CCONC(=O)c1ccc(-c2noc(C(F)(F)F)n2)c(F)c1` [Compound 1.13, N-ethoxy-3-fluoro-4-[5-(trifluoromethyl)-1,2,4-oxadiazol-3-yl]benzamide] the pest or weed control at 200 ppm [1] was no less than 80%, the melting point was 139 to 144 °C and the inhibition at 20 ppm [2] was no less than 80%.
In the case of `CON(Cc1ccccc1)C(=O)c1ccc(-c2noc(C(F)(F)F)n2)cc1F` [Compound 1.6, N-benzyl-2-fluoro-N-methoxy-4-[5-(trifluoromethyl)-1,2,4-oxadiazol-3-yl]benzamide], the pest or weed control at 200 ppm [3] is reported as no less than 80%, the pest or weed control at 200 ppm [1] is reported as no less than 80% and the pest or weed control at 100 ppm [4] is reported as no less than 80%. It also gave a pest or weed control at 200 ppm [5] of no less than 80% and an inhibition at 20 ppm [2] of no less than 80%.
Molecule `CON(CC1CC1)C(=O)c1ccc(-c2noc(C(F)(F)F)n2)cc1F` [Compound 1.8, N-(cyclopropylmethyl)-2-fluoro-N-methoxy-4-[5-(trifluoromethyl)-1,2,4-oxadiazol-3-yl]benzamide] has a pest or weed control at 200 ppm [3] of no less than 80%, a pest or weed control at 200 ppm [1] of no less than 80% and a pest or weed control at 100 ppm [4] of no less than 80%. For the same molecule, the pest or weed control at 200 ppm [5] was no less than 80% and the inhibition at 20 ppm [2] was no less than 80%.
For `CON(Cc1ccccc1)C(=O)c1ccc(-c2noc(C(F)(F)F)n2)cc1` [Compound 2.5, N-benzyl-N-methoxy-4-[5-(trifluoromethyl)-1,2,4-oxadiazol-3-yl]benzamide], the pest or weed control at 200 ppm [3] was no less than 80%, the pest or weed control at 200 ppm [1] was no less than 80% and the pest or weed control at 100 ppm [4] was no less than 80%. The pest or weed control at 200 ppm [5] was no less than 80% and the inhibition at 20 ppm [2] was no less than 80%.
In the case of `C=CCONC(=O)Cc1ccc(-c2noc(C(F)(F)F)n2)cc1` [Compound 2.14, N-allyloxy-2-[4-[5-(trifluoromethyl)-1,2,4-oxadiazol-3-yl]phenyl]acetamide], the pest or weed control at 200 ppm [1] is reported as no less than 80%, the melting point is reported as 153 to 158 °C and the inhibition at 20 ppm [2] is reported as no less than 80%.
In the case of `COC(=O)CN(OC)C(=O)c1ccc(-c2noc(C(F)(F)F)n2)cc1` [Compound 2.8, methyl 2-[methoxy-[4-[5-(trifluoromethyl)-1,2,4-oxadiazol-3-yl]benzoyl]amino]acetate], the pest or weed control at 200 ppm [3] is reported as no less than 80%, the pest or weed control at 200 ppm [1] is reported as no less than 80% and the pest or weed control at 100 ppm [4] is reported as no less than 80%. The pest or weed control at 200 ppm [5] was no less than 80% and the inhibition at 20 ppm [2] was no less than 80%.
Molecule `COC(=O)C1(N(O)C(=O)c2ccc(-c3noc(C(F)(F)F)n3)cc2F)CCN(OC)CC1` [Compound 1.5, methyl 4-[[2-fluoro-4-[5-(trifluoromethyl)-1,2,4-oxadiazol-3-yl]benzoyl]-hydroxy-amino]-1-methoxy-piperidine-4-carboxylate] has a pest or weed control at 200 ppm [3] of no less than 80%, a pest or weed control at 200 ppm [1] of no less than 80% and a pest or weed control at 100 ppm [4] of no less than 80%. The pest or weed control at 200 ppm [5] was no less than 80% and the inhibition at 20 ppm [2] was no less than 80%.
With `CON(CC(=O)NC(C)(C)C)C(=O)c1ccc(-c2noc(C(F)(F)F)n2)cc1` [Compound 2.2, N-[2-(tert-butylamino)-2-oxo-ethyl]-N-methoxy-4-[5-(trifluoromethyl)-1,2,4-oxadiazol-3-yl]benzamide] the pest or weed control at 200 ppm [3] was no less than 80%, the pest or weed control at 200 ppm [1] was no less than 80% and the pest or weed control at 100 ppm [4] was no less than 80%. The pest or weed control at 200 ppm [5] was no less than 80% and the inhibition at 20 ppm [2] was no less than 80%.
In the case of `O=C(NO)c1ccc(-c2noc(C(F)(F)F)n2)cc1` [Compound 2.4, 4-[5-(trifluoromethyl)-1,2,4-oxadiazol-3-yl]benzenecarbohydroxamic acid], the pest or weed control at 200 ppm [3] is reported as no less than 80%, the pest or weed control at 200 ppm [1] is reported as no less than 80% and the pest or weed control at 100 ppm [4] is reported as no less than 80%. For the same molecule, the pest or weed control at 200 ppm [5] was no less than 80% and the inhibition at 20 ppm [2] was no less than 80%.
For `C=CCN(OC)C(=O)c1ccc(-c2noc(C(F)(F)F)n2)cc1` [Compound 2.10, N-allyl-N-methoxy-4-[5-(trifluoromethyl)-1,2,4-oxadiazol-3-yl]benzamide], the pest or weed control at 200 ppm [3] was no less than 80%, the pest or weed control at 200 ppm [1] was no less than 80% and the pest or weed control at 100 ppm [4] was no less than 80%. It also gave a pest or weed control at 200 ppm [5] of no less than 80% and an inhibition at 20 ppm [2] of no less than 80%.
`C#CCN(OC)C(=O)c1ccc(-c2noc(C(F)(F)F)n2)cc1` [Compound 2.6, N-methoxy-N-prop-2-ynyl-4-[5-(trifluoromethyl)-1,2,4-oxadiazol-3-yl]benzamide] showed a pest or weed control at 200 ppm [3] of no less than 80%, a pest or weed control at 200 ppm [1] of no less than 80% and a pest or weed control at 100 ppm [4] of no less than 80%. The pest or weed control at 200 ppm [5] was no less than 80% and the inhibition at 20 ppm [2] was no less than 80%.
In the case of `CON(Cc1ccco1)C(=O)c1ccc(-c2noc(C(F)(F)F)n2)cc1F` [Compound 1.7, 2-fluoro-N-(2-furylmethyl)-N-methoxy-4-[5-(trifluoromethyl)-1,2,4-oxadiazol-3-yl]benzamide], the pest or weed control at 200 ppm [3] is reported as no less than 80%, the pest or weed control at 200 ppm [1] is reported as no less than 80% and the pest or weed control at 100 ppm [4] is reported as no less than 80%. The pest or weed control at 200 ppm [5] was no less than 80% and the inhibition at 20 ppm [2] was no less than 80%.
In the case of `C#CCN(OC)C(=O)c1ccc(-c2noc(C(F)(F)F)n2)cc1F` [Compound 1.10, 2-fluoro-N-methoxy-N-prop-2-ynyl-4-[5-(trifluoromethyl)-1,2,4-oxadiazol-3-yl]benzamide], the pest or weed control at 200 ppm [3] is reported as no less than 80%, the pest or weed control at 200 ppm [1] is reported as no less than 80% and the pest or weed control at 100 ppm [4] is reported as no less than 80%. It also gave a pest or weed control at 200 ppm [5] of no less than 80% and an inhibition at 20 ppm [2] of no less than 80%.
`CON(CC=C(Cl)Cl)C(=O)c1ccc(-c2noc(C(F)(F)F)n2)cc1` [Compound 2.7, N-(3,3-dichloroallyl)-N-methoxy-4-[5-(trifluoromethyl)-1,2,4-oxadiazol-3-yl]benzamide] gave a pest or weed control at 200 ppm [3] of no less than 80%, a pest or weed control at 200 ppm [1] of no less than 80% and a pest or weed control at 100 ppm [4] of no less than 80%. It also gave a pest or weed control at 200 ppm [5] of no less than 80% and an inhibition at 20 ppm [2] of no less than 80%.
